Patent US6468509B2, “Sunscreen composition containing sol-gel microcapsules” (Sol-Gel Technologies Ltd., priority 1999, dated 2002)

Tests used:
yeast strain, XD83 = test: Phototoxicity test based on survival of yeast under simulated sunlight; format: cell-based; conditions: simulated sunlight 13 mW/cm^2
Method: The phototoxicity tests are based on the survival of a yeast strain, XD83. A single colony of yeast is inoculated into growth medium, and harvested during the exponential growth. The cells are suspended at a known concentration in a phosphate buffer, to afford a uniform population of cells. The cells are illuminated with simulated sunlight (13 mW/cm^2) in the absence or presence of test compounds with continous stirring. Samples are taken at increasing times (0, 10, 20, 30 minutes of illumination). The samples are analyzed semi-quantitatively, by applying two dilutions of the sample as small droplets (10 μl) to the surface of nutrient agar plates, and incubated at 37° C. for 48 hours. Patches of growth are found around the droplet. It can be easily seen when growth has been decreased. Sunscreen samples are introduces as 1000 μM concentration of the major UVB sunscreen active ingredient.

supercoiled plasmid DNA = conditions: positive controls at saturation concentrations; cited from earlier work

CCCCC(CC)COC(=O)c1ccc(N(C)C)cc1 (stereo not drawn) [Padimate-O, 2-Ethylhexyl N,N-Dimethyl-p-aminobenzoate]
phototoxic effect on the growth of the yeast cell (yeast strain, XD83; positive controls): strong phototoxic effect | Phototoxicity (yeast strain, XD83; yeast XD83, 0-30 minutes illumination, 1000 μM of major UVB sunscreen active ingredient): Clearly toxic | strand breaks on DNA when illuminated in vitro (supercoiled plasmid DNA): inflict strand breaks on DNA
